Experimental data published in publication PMC12463534, “Exploring the Anticancer Properties of 4-Phenylthiazole-Based Ru(II) and Os(II) Metallacycles Featuring 1-Methylimidazole as N-Donor Functionality” (Bioinorganic Chemistry and Applications, 2025).

Legend:
SW480 cells = test: DCFH-DA assay, cellular ROS levels; assay type: cell-based, human; conditions: 2 h, concentration dependent
[1] = test system: G4 forming sequences (h-Telo, bcl2, hTERT, Kit1, Kit2) and dsDNA; test: FRET melting assay, G-quadruplex / B-DNA interaction; assay type: binding, human; conditions: 60 mM potassium cacodylate pH 7.4, 2 h incubation
Experimental: G4s are DNA secondary motifs that play crucial roles in cancer development. […] The complexes were incubated with different G4 forming sequences: one derived from human telomere-forming (h-Telo) and four corresponding to promoter regions of oncogenes, namely, bcl2, hTERT, Kit1, and Kit2. For comparison, a self-complementary sequence called dsDNA was used to represent B-DNA (Table S2).
FRET experiments were conducted using an Applied Biosystems QuantStudio 6 PCR cycler in a 96-well format equipped with a FAM (6-carboxyfluorescein) filter. Oligonucleotide stock solutions, labelled with FAM and TAMRA (6-carboxytetramethylrhodamine) probes, were diluted to the desired concentration in a 60-mM potassium cacodylate buffer (pH 7.4). To fold the oligonucleotides into their B-DNA or G4 topologies, the solutions were heated to 95°C for 5 min and then allowed to cool slowly to room temperature overnight. The final concentration of the oligonucleotides was 0.2 μM, with a total volume of 30 μL in each well. Metal complexes were dissolved in DMF to prepare 2 mM stock solutions and further diluted with the buffer, where DMF concentration never exceeded 0.05%. Mixtures of oligonucleotides and metal compounds were left at room temperature for 2 h. Data were collected twice, each time in duplicate, over a temperature range of 25°C–95°C, with a ramp of 1°C every 30 s. FAM emission data were normalized from 0 to 1 to compare different datasets. After data normalization, we extrapolated the T1/2 values, i.e., the temperature at which normalized FAM emission is 0.5. The DNA concentration is expressed in strands.

Balb/c mice = test: Toxicity experiments in Balb/c mice (MTD); conditions: mice, i.p.
Experimental: Finally, we were interested in the anticancer activity of selected complexes of our panel in an in vivo mouse setting. Before injecting the compounds in tumor-bearing mice, toxicity experiments were performed. […] On the last day of therapy, most animals were sacrificed and tissues as well as tumors collected. Only four mice (per group) were kept to get information on the impact of the drugs on the overall survival.

CT26 tumor = test: Anticancer activity in CT26 tumor-bearing BALB/c mice; assay type: in vivo; conditions: i.p. 50 mg/kg
Experimental: Figure 5 Anticancer activity of 1c and 3c in vivo. CT26-bearing BALB/c mice were treated i.p. with 50 mg/kg for five consecutive days for 2 weeks. (a) Impact on tumor growth; data are presented as mean ± SEM. […] On Day 15, most of the animals were sacrificed and tissues collected for further analyses. Of each group, 4 animals were kept to assess the impact on overall survival, which is shown in (b). Statistical significance was tested by log-rank test and Mantel–Cox post-test, ^∗p < 0.01. (c) The ruthenium levels measured by ICP-MS in the collected tissue samples of the mice, which were sacrificed 2 h after the last treatment.
CT26 cells (5 × 10^5 cells in 50-μL serum-free medium) were injected subcutaneously (s.c.) into the right flank of 8–16-week-old BALB/c mice (Envigo Laboratories, San Pietro Al Natisone, Italy). After 3 days, therapy treatment started on five consecutive days for 2 weeks. Animals were treated i.p. with 50 mg/kg 1c and 3c (all dissolved in 10% DMSO in 0.9% NaCl, 12 mice per group). The solvent control animals received 10% DMSO in 0.9% NaCl. Every day, the animals were monitored for the overall health conditions and tumor size was measured regularly by caliper measurement. Tumor volumes (mm^3) were calculated using following formula: length × width^2/2. In the overall survival arm of the experiment, mice were sacrificed by cervical dislocation in the case of a tumor length > 20 mm or tumor ulceration or a decreased body weight of ∼20%. Tumor growth and possible side effects of the treatment were evaluated by daily recording the tumor size by caliper measurement and parameters of the animal's overall health conditions. In the tissue sampling arm at the experiment, the mice were sacrificed by cervical dislocation 2 h after the last treatment. Tumors as well as organs were collected. Additionally, blood was drawn and incubated for 25 min to allow blood clotting. To isolate serum and blood pellets, the blood was centrifuged for 10 min at 17,900 g at room temperature. The supernatant characterized as serum was transferred to a new tube and centrifuged again to remove residual red blood cells. All collected samples were stored at −20°C and further processed for platinum measurements via ICP-MS.

[2] = Stability and reactivity in aqueous solution (1H-NMR, UV-vis)
Experimental: The exact concentration of the metal complex stock solutions was calculated on weight-in-volume basis. Complexes were dissolved in water in 1–5 mM concentration.
The path length was 1 cm.
^1H-NMR spectroscopic studies were carried out on a Bruker FT-NMR spectrometer AV NEO 500.10 MHz and a Bruker Avance III HD Ascend 500 Plus instrument. All ^1H-NMR spectra were recorded using a standard Bruker noesygppr1d pulse sequence to suppress water resonance. […] Samples contained 10% (v/v) D2O with a complex concentration of ca. 1 mM. Samples were prepared in pH 1.3 aqueous HCl solution or in pH 7.4 PBS.

Cc1ccc(C(C)C)cc1.Cn1cc[n+]([Ru-]2[c]3cc(S(C)(=O)=O)ccc3-c3csc[n+]32)c1.O=[N+]([O-])[O-] [Compound 3c, [((3-κN)-1-Methylimidazole)(4-(4-(methylsulfonyl)phenyl)thiazolato-κN,κC2′)(η^6-p-cymene)ruthenium(II)] Nitrate]
Effect on intracellular ROS levels (SW480 cells): constantly decrease ROS levels with increasing concentrations
Stabilization of oligonucleotides (G4s or B-DNA) [1]: No stabilization
Tolerated dose (Balb/c mice): at least 50 mg/kg
Impact on overall survival (CT26 tumor; 4 mice per group, log-rank test): significantly prolonged overall survival
Impact on tumor volume (anticancer activity) (CT26 tumor; 5 times a week for two weeks, did not reach statistical significance): slight anticancer activity
Survival of one animal (CT26 tumor; one animal): 48 days
Sensitivity to chloride: replacement of coordinated MeIm ([2]; 3 M KCl, pH 7.4, UV-vis): could not replace coordinated MeIm
Decomposition at pH 7.4 ([2]; PBS pH 7.4, 1 mM complex, 25°C, within 6 days, 1H-NMR): no decomposition
Behaviour in acidic solution ([2]; pH = 1.0 or 1.3 (HCl), followed in time up to 6 days, 1H-NMR/UV-vis): decomposition
Spectral change at pH 10.0 ([2]; pH = 10.0 (NaOH), within 2 days, UV-vis): no spectral change
